# Reference: US8519163B2, “Anti-tumor activity of AECHL-1, novel triterpenoid isolated from Ailanthus excelsa in vitro and in vivo” (National Centre for Cell Science, priority 2008, dated 2013)
# Values joined by “and” are separate entries in the source; they are usually repeats but may differ in a detail not shown here. Equal values may be shown once.
# Experiments:
# [1] = test system: HEK 293 (Human embryonic kidney cell line); test: Cell viability assay (MTT); format: cell-based; settings: HEK 293, compared with tumor cell lines
# Protocol: The cytotoxic effect of AECHL-1 on the HEK 293, B16F10, PC3, MCF 7 and MDA-MB-231 cells was measured by MTT assay as described in previous studies. The cells were dispensed in 96-well, flat bottom microtiter plates (Becton Dickinson Labware) at a density of 5×10^3 cells each well. […] MTT [3-(4,5-dimethylthiazol-2yl)-2,5-diphenyl tetrazolium bromide] solution (5 mg/ml in PBS) was added at the end of experiment to each well to a final concentration of 0.5 mg/ml, and the cultures were incubated for further 4 h. The resulting formazan crystals were dissolved in 100 μl dimethylsulfoxide (DMSO) and absorbance was measured in a microplate reader at 570 nm (Molecular Devices, Spectra MAX 250). The cytotoxic effect was expressed as a relative percentage of inhibition calculated as follows: Relative inhibition(%)=[(A570 control−A570 AECHL-1)A570 control]×100 Cell Proliferation Assay
# [2] = mouse, in vivo
# Protocol: Next, we examined the effects of AECHL-1 on the growth of primary tumor allografts and xenografts of B16F10 cells growing in C57B1/6 mice and MCF-7 cells growing in athymic nude mice respectively. […] On this basis, we chose a dose that was 10-20% of this maximum tolerated dose or 50 and 100 μg/kg/day, i.p. or the doses which induced maximum cell death in vitro.
# MCF-7 = test: In vivo xenograft tumor model; parameters: species or system athymic nude mice; settings: for tumor size reduced by: MCF-7 xenograft
# Protocol: The data reported for tumor volumes are expressed as mean±SEM. Statistical differences were determined by ANOVA and post test applied was Tukey-Kramer multiple comparison Test. For Tumor to body weight ratio post test applied was Dunnett multiple comparisons test.
# B16F10 cells = test: Cell cycle analysis by flow cytometry; format: cell-based, mouse; settings: for Phase of cell cycle (% of cells) G1 / Phase of cell cycle (% of cells) G2/M / Phase of cell cycle (% of cells) S / Phase of cell cycle (% of cells) Sub G0: 24 h
# Protocol: (§1) The cell cycle analysis of MCF-7, B16F10 MDA-MB-231 and PC3 cells was done by flow cytometry. […] Cells were harvested with trypsin (0.05%), 0.02% EDTA, 0.05% glucose and a single-cell suspension was prepared. Cells were washed and were pelleted by centrifugation (1000×g for 2 min) and fixed in 70% ethanol while vortexing and stored at 4° C. for 1 hour. Fixed cells were pelleted by centrifugation, to remove ethanol and washed with PBS. Cells were re-suspended in PBS containing 50 μg/ml propidium iodide, 0.1 g/L RNase and 1% BSA, incubated for 30 min at 37° C. in the dark, and analyzed with flow cytometry (FACS Vantage-BD Sciences, USA) equipped with an argon laser at 488 nm. The data was analyzed using Cell Quest software for determining the percent population in different phases of cell cycle.
# p53 = test: Immunocytochemistry, p53 translocation in MCF-7 cells; format: cell-based, human; settings: AECHL-1 2-40 μM, 24 h, confocal microscopy
# Protocol: Immunocytochemistry was performed as described previously. […] Cells were incubated with primary anti-p53 antibodies (1:100; Abcam) and anti-α-tubulin antibodies (1:10000; Sigma chemical Co.) for 1 hour at room temperature. After washing with PBS, cells were incubated with CY2-conjugated secondary antibodies (1:200; Chemicon, Germany) and Alexa-conjugated secondary antibodies (1:10000; Sigma, St. Louis, Mo.) for 45 minutes and nuclear staining was done with DAPI. Images were captured under confocal microscope.
# The tumor suppressor p53 plays a critical role in preventing human cancer formation. It translocates into the nucleus and works as a transcription factor by upregulating cell cycle regulatory proteins and induces cell cycle arrest and/or programmed cell death (apoptosis) (11). […] After 24 h of incubation, the p53 translocation in the nucleus (green fluorescence) and microtubule network (red fluorescence) was visualized by confocal microscopy.
# PC3 cells = test: Cell cycle analysis by flow cytometry; format: cell-based, human; settings: for Phase of cell cycle (% of cells) G1 / Phase of cell cycle (% of cells) G2/M / Phase of cell cycle (% of cells) S / Phase of cell cycle (% of cells) Sub G0: 24 h
# Protocol: as §1
# MDA-MB-231 cells = test: Cell cycle analysis by flow cytometry; format: cell-based, human; settings: for Phase of cell cycle (% of cells) G1 / Phase of cell cycle (% of cells) G2/M / Phase of cell cycle (% of cells) S / Phase of cell cycle (% of cells) Sub G0: 24 h
# Protocol: as §1
# MCF-7 cells = test: Cell cycle analysis by flow cytometry; format: cell-based, human; settings: for Phase of cell cycle (% of cells) G1 / Phase of cell cycle (% of cells) G2/M / Phase of cell cycle (% of cells) S / Phase of cell cycle (% of cells) Sub G0: 24 h
# Protocol: as §1
structure (smiles),measurement,setting,value
C=C1C(OCC)C2(O)OCC34C(=C(C)c5c(C)cc(O)c(OCC)c5C23)OC(=O)C(OC(=O)C(C)(O)CC)C14 (stereo not drawn) [AECHL-1],cytotoxicity in normal cells,[1],less cytotoxicity
same,maximum tolerated dose,[2],500 μg/mice
same,tumor size reduced by,MCF-7; 5 μg/0.05 ml intra-tumor for 10 days,35.72±0.05%
same,tumor size reduced by,MCF-7; 10 μg/0.05 ml intra-tumor for 10 days,28.55±0.06%
same,tumor size reduced by,MCF-7; 20 μg/0.05 ml intra-tumor for 10 days,4.1±0.27%
same,histological examination of tumor tissue,"MCF-7; nude mice, 5 μg",decreased tumor cell density
same,Phase of cell cycle (% of cells) G1,"B16F10 cells; B16F10, 10 μM",56.55%
same,Phase of cell cycle (% of cells) G2/M,"B16F10 cells; B16F10, 10 μM",23.02%
same,Phase of cell cycle (% of cells) S,"B16F10 cells; B16F10, 10 μM",20.46%
same,Phase of cell cycle (% of cells) Sub G0,"B16F10 cells; B16F10, 10 μM",0.39%
same,Phase of cell cycle (% of cells) G1,"B16F10 cells; B16F10, 20 μM",57.67%
same,Phase of cell cycle (% of cells) G2/M,"B16F10 cells; B16F10, 20 μM",23.60%
same,Phase of cell cycle (% of cells) S,"B16F10 cells; B16F10, 20 μM",18.40%
same,Phase of cell cycle (% of cells) Sub G0,"B16F10 cells; B16F10, 20 μM",0.65%
same,Phase of cell cycle (% of cells) G1,"B16F10 cells; B16F10, 40 μM",72.08%
same,Phase of cell cycle (% of cells) G2/M,"B16F10 cells; B16F10, 40 μM",14.73%
same,Phase of cell cycle (% of cells) S,"B16F10 cells; B16F10, 40 μM",11.43%
same,Phase of cell cycle (% of cells) Sub G0,"B16F10 cells; B16F10, 40 μM",2.05%
same,Phase of cell cycle (% of cells) G1,"B16F10 cells; B16F10, 100 μM",64.04%
same,Phase of cell cycle (% of cells) G2/M,"B16F10 cells; B16F10, 100 μM",13.23%
same,Phase of cell cycle (% of cells) S,"B16F10 cells; B16F10, 100 μM",15.41%
same,Phase of cell cycle (% of cells) Sub G0,"B16F10 cells; B16F10, 100 μM",7.82%
same,phase of cell growth arrest,B16F10 cells; B16F10 cells,G0/G1 phase arrest
same,p53 translocation in the nucleus,p53,translocation of the p53 into the nucleus
same,Phase of cell cycle (% of cells) G1,"PC3 cells; PC3, 10 μM",50.74%
same,Phase of cell cycle (% of cells) G2/M,"PC3 cells; PC3, 10 μM",30.94%
same,Phase of cell cycle (% of cells) S,"PC3 cells; PC3, 10 μM",16.21%
same,Phase of cell cycle (% of cells) Sub G0,"PC3 cells; PC3, 10 μM",1.66%
same,Phase of cell cycle (% of cells) G1,"PC3 cells; PC3, 20 μM",48.96%
same,Phase of cell cycle (% of cells) G2/M,"PC3 cells; PC3, 20 μM",34.99%
same,Phase of cell cycle (% of cells) S,"PC3 cells; PC3, 20 μM",13.99%
same,Phase of cell cycle (% of cells) Sub G0,"PC3 cells; PC3, 20 μM",1.79%
same,Phase of cell cycle (% of cells) G1,"PC3 cells; PC3, 40 μM",44.26%
same,Phase of cell cycle (% of cells) G2/M,"PC3 cells; PC3, 40 μM",33.82%
same,Phase of cell cycle (% of cells) S,"PC3 cells; PC3, 40 μM",17.71%
same,Phase of cell cycle (% of cells) Sub G0,"PC3 cells; PC3, 40 μM",4.14%
same,Phase of cell cycle (% of cells) G1,"PC3 cells; PC3, 100 μM",42.92%
same,Phase of cell cycle (% of cells) G2/M,"PC3 cells; PC3, 100 μM",35.37%
same,Phase of cell cycle (% of cells) S,"PC3 cells; PC3, 100 μM",18.25%
same,Phase of cell cycle (% of cells) Sub G0,"PC3 cells; PC3, 100 μM",3.36%
same,cell count in S-G2/M phase,"PC3 cells; PC3, 100 μM, vehicle 45.41%",53.62%
same,phase of cell growth arrest,PC3 cells; PC3 cells,S-G2/M phase
same,Phase of cell cycle (% of cells) G1,"MDA-MB-231 cells; MDA-231, 10 μM",43.03%
same,Phase of cell cycle (% of cells) G2/M,"MDA-MB-231 cells; MDA-231, 10 μM",32.21%
same,Phase of cell cycle (% of cells) S,"MDA-MB-231 cells; MDA-231, 10 μM",24.06%
same,Phase of cell cycle (% of cells) Sub G0,"MDA-MB-231 cells; MDA-231, 10 μM",1.03%
same,Phase of cell cycle (% of cells) G1,"MDA-MB-231 cells; MDA-231, 20 μM",33.18%
same,Phase of cell cycle (% of cells) G2/M,"MDA-MB-231 cells; MDA-231, 20 μM",38.01%
same,Phase of cell cycle (% of cells) S,"MDA-MB-231 cells; MDA-231, 20 μM",28.63%
same,Phase of cell cycle (% of cells) Sub G0,"MDA-MB-231 cells; MDA-231, 20 μM",0.95%
same,Phase of cell cycle (% of cells) G1,"MDA-MB-231 cells; MDA-231, 40 μM",26.66%
same,Phase of cell cycle (% of cells) G2/M,"MDA-MB-231 cells; MDA-231, 40 μM",45.14% and 45.15%
same,Phase of cell cycle (% of cells) S,"MDA-MB-231 cells; MDA-231, 40 μM",28.12%
same,Phase of cell cycle (% of cells) Sub G0,"MDA-MB-231 cells; MDA-231, 40 μM",0.54%
same,Phase of cell cycle (% of cells) G1,"MDA-MB-231 cells; MDA-231, 100 μM",22.82%
same,Phase of cell cycle (% of cells) G2/M,"MDA-MB-231 cells; MDA-231, 100 μM",46.17%
same,Phase of cell cycle (% of cells) S,"MDA-MB-231 cells; MDA-231, 100 μM",30.99%
same,Phase of cell cycle (% of cells) Sub G0,"MDA-MB-231 cells; MDA-231, 100 μM",0.58%
same,phase of cell growth arrest,MDA-MB-231 cells; MDA-MB 231 cells,S-G2/M phase
same,Phase of cell cycle (% of cells) G1,"MCF-7 cells; MCF-7, 4 μM",35.04%
same,Phase of cell cycle (% of cells) G2/M,"MCF-7 cells; MCF-7, 4 μM",36.65%
same,Phase of cell cycle (% of cells) S,"MCF-7 cells; MCF-7, 4 μM",27.20%
same,Phase of cell cycle (% of cells) Sub G0,"MCF-7 cells; MCF-7, 4 μM",1.61%
same,Phase of cell cycle (% of cells) G1,"MCF-7 cells; MCF-7, 10 μM",27.85%
same,Phase of cell cycle (% of cells) G2/M,"MCF-7 cells; MCF-7, 10 μM",36.78%
same,Phase of cell cycle (% of cells) S,"MCF-7 cells; MCF-7, 10 μM",34.19%
same,Phase of cell cycle (% of cells) Sub G0,"MCF-7 cells; MCF-7, 10 μM",1.99%
same,Phase of cell cycle (% of cells) G1,"MCF-7 cells; MCF-7, 20 μM",29.68%
same,Phase of cell cycle (% of cells) G2/M,"MCF-7 cells; MCF-7, 20 μM",31.98%
same,Phase of cell cycle (% of cells) S,"MCF-7 cells; MCF-7, 20 μM",37.44%
same,Phase of cell cycle (% of cells) Sub G0,"MCF-7 cells; MCF-7, 20 μM",1.81%
same,Phase of cell cycle (% of cells) G1,"MCF-7 cells; MCF-7, 40 μM",36.26%
same,Phase of cell cycle (% of cells) G2/M,"MCF-7 cells; MCF-7, 40 μM",29.42%
same,Phase of cell cycle (% of cells) S,"MCF-7 cells; MCF-7, 40 μM",32.50%
same,Phase of cell cycle (% of cells) Sub G0,"MCF-7 cells; MCF-7, 40 μM",2.55%
same,% of cells in G0/G1 phase,"MCF-7 cells; MCF-7, 100 μM",36.26%
same,cell count in S-G2/M phase,"MCF-7 cells; MCF-7, 100 μM, control 45.13",69.4%
same,phase of cell growth arrest,MCF-7 cells; MCF-7 cells,S-G2/M phase
